Earlier results, collected in patent US7767208B2, “Noninvasive vascular therapy” (Light Sciences Oncology, Inc., priority 1999, dated 2010).

Conditions: systemically administered sensitizer in clinical use; for sensitize the skin for: duration of skin sensitization

Compound | sensitize the skin for | photosensitivity lasting (skin photosensitivity)
CCOC(=O)C1=Cc2c3nc(cc4nc(cc5[n-]c(cc6[n-]c2c(C)c6CC)c(C)c5CC)C(C)=C4CC)[C@@H](C)[C@]13CC.[Cl-].[Cl-].[Sn] (racemic) [Purlytin] | several weeks | –
Oc1cccc(-c2c3nc(c(-c4cccc(O)c4)c4ccc([nH]4)c(-c4cccc(O)c4)c4nc(c(-c5cccc(O)c5)c5ccc2[nH]5)CC4)C=C3)c1 [Foscan] | several weeks | –
sodium porfimer [Photophrin] | – | up to 6 weeks
